Like-named read-outs stand apart in the source and are kept apart here. Marks after values point to notes of the source that are not given here.
What was measured:
B. cenocepacia K56-2 [1] = assay type: cell-based, Burkholderia cenocepacia; conditions: B. cenocepacia K56-2; CAMHB, 18 h, 37 °C
B. lata BCC6 = assay type: cell-based, Burkholderia lata; conditions: B. lata BCC6
B. contaminans MF16 = assay type: cell-based, Burkholderia contaminans; conditions: B. contaminans MF16
[2] = system: B. contaminans FFH-2050MA; assay type: cell-based, Burkholderia contaminans; conditions: B. contaminans FFH-2050MA
B. dolosa CEP021 = assay type: cell-based, Burkholderia dolosa; conditions: B. dolosa CEP021
B. multivorans ATCC17616 = assay type: cell-based, Burkholderia multivorans; conditions: B. multivorans ATCC17616
B. cenocepacia 140485 = assay type: cell-based, Burkholderia cenocepacia; conditions: B. cenocepacia 140485
B. ubonensis LMG 20358 = assay type: cell-based, Burkholderia ubonensis; conditions: B. ubonensis LMG 20358
B. contaminans FFH-4004 = assay type: cell-based, Burkholderia contaminans; conditions: B. contaminans FFH-4004
[3] = system: B. mallei China 5 (NBL 4); assay type: cell-based, Burkholderia mallei
[4] = system: B. mallei Ivan (NCTC 10230); assay type: cell-based, Burkholderia mallei
[5] = system: B. mallei China 7 (NBL 7); assay type: cell-based, Burkholderia mallei
B. pseudomallei 1710b = assay type: cell-based, Burkholderia pseudomallei
B. pseudomallei MSHR465a = assay type: cell-based, Burkholderia pseudomallei
[6] = system: B. pseudomallei HBPUB10134a; assay type: cell-based, Burkholderia pseudomallei
B. mallei = assay type: cell-based, Burkholderia mallei; conditions: range over B. mallei strains
B. pseudomallei = assay type: cell-based, Burkholderia pseudomallei
members of the Bcc = test: MIC, summary over Bcc panel; assay type: cell-based, Burkholderia cepacia complex; conditions: text summary over Bcc panel (most of the MICs)
Gram-negative bacteria = system: Gram-negative bacteria; parameters: method as in PMID 25831516; conditions: cited from earlier work
[7] = system: Stenotrophomonas maltophilia DH57; assay type: cell-based
[8] = system: Stenotrophomonas maltophilia K279a; assay type: cell-based
Escherichia coli 120955 [9] = assay type: cell-based
[10] = system: Escherichia vulneris CEP511; assay type: cell-based
[11] = system: Klebsiella pneumoniae 120310; assay type: cell-based
[12] = system: Acinetobacter baumannii ATCC 17978; assay type: cell-based
[13] = system: Staphylococcus aureus ATCC 27700; assay type: cell-based
[14] = system: Staphylococcus aureus 107094; assay type: cell-based
[15] = system: Achromobacter xylosoxidans ACH03; assay type: cell-based
[16] = system: Burkholderia cenocepacia K56-2; test: MBC (minimum bactericidal concentration); assay type: cell-based; conditions: MBC determined from exponential time kill curve
[17] = system: Stenotrophomonas maltophilia K279a; test: MBC (minimum bactericidal concentration); assay type: cell-based
[18] = system: B. cenocepacia K56-2 persister cells; test: Time kill of persister cells generated with ciprofloxacin; assay type: cell-based, Burkholderia cenocepacia
B. cenocepacia K56-2 [19] = test: In vivo antibiotic activity in infected C. elegans; conditions: C. elegans infected with B. cenocepacia K56-2, data not shown
B. cenocepacia K56-2 [20] = test: In vivo antibiotic activity in infected G. mellonella; conditions: G. mellonella infected with B. cenocepacia K56-2, data not shown
B. cenocepacia K56-2 [21] = test: MIC in 50% human serum; assay type: cell-based, Burkholderia cenocepacia
C. elegans DH26 = conditions: for Percent survival of C. elegans: 24 h
[22] = system: Galleria mellonella larvae; test: Galleria toxicity
B. cenocepacia K56-2 [23] = test: Persister frequency assay; conditions: 24 h
[24] = system: Stenotrophomonas maltophilia DH57; test: MBC (minimum bactericidal concentration)
Escherichia coli 120955 [25] = test: MBC (minimum bactericidal concentration)
[26] = system: Escherichia vulneris CEP511; test: MBC (minimum bactericidal concentration)
[27] = system: Klebsiella pneumoniae 120310; test: MBC (minimum bactericidal concentration)
[28] = system: Acinetobacter baumannii ATCC 17978; test: MBC (minimum bactericidal concentration)
[29] = system: Staphylococcus aureus ATCC 27700; test: MBC (minimum bactericidal concentration)
[30] = system: Staphylococcus aureus 107094; test: MBC (minimum bactericidal concentration)
[31] = system: Achromobacter xylosoxidans ACH03; test: MBC (minimum bactericidal concentration)
[32] = system: Burkholderia cenocepacia K56-2; test: Time kill assays (exponential and stationary phase)

## CC(=O)OC[C@H]1O[C@@H]([S-])[C@H](OC(C)=O)[C@@H](OC(C)=O)[C@@H]1OC(C)=O.CCP(CC)CC.[Au+] [Auranofin]
B. cenocepacia K56-2 [1]
  MIC: >128 µg/mL
B. lata BCC6
  MIC: 128 µg/mL
B. contaminans MF16
  MIC: 128 µg/mL
[2]
  MIC: 128 µg/mL
B. dolosa CEP021
  MIC: >128 µg/mL
B. multivorans ATCC17616
  MIC: 128 µg/mL
B. cenocepacia 140485
  MIC: 128 µg/mL
B. ubonensis LMG 20358
  MIC: >128 µg/mL
B. contaminans FFH-4004
  MIC: >128 µg/mL
[3]
  MIC: 0.25 µg/mL
[4]
  MIC: 0.5 µg/mL
[5]
  MIC: 1 µg/mL
B. pseudomallei 1710b
  MIC: 64 µg/mL
B. pseudomallei MSHR465a
  MIC: 64 µg/mL
[6]
  MIC: 64 µg/mL
B. mallei
  MICs against B. mallei: 0.25 to 1 µg/mL
B. pseudomallei
  MIC in B. pseudomallei: 64 µg/mL
Members of the Bcc
  MICs against members of the Bcc: ≥ 128 µg/mL
Gram-negative bacteria
  MICs against Gram-negative bacteria: > 16 mg/L

## CC(O)C[S][Au-][P+](C)(C)C (stereo not drawn) [MS-40S]
B. cenocepacia K56-2 [1]
  MIC: 8 µg/mL
B. lata BCC6
  MIC: 8 µg/mL
B. contaminans MF16
  MIC: 8 µg/mL
[2]
  MIC: 16 µg/mL
B. dolosa CEP021
  MIC: 32 µg/mL
B. multivorans ATCC17616
  MIC: 16 µg/mL
B. cenocepacia 140485
  MIC: 16 µg/mL
B. ubonensis LMG 20358
  MIC: 16 µg/mL
B. contaminans FFH-4004
  MIC: 16 µg/mL
[3]
  MIC: 0.12 µg/mL
[4]
  MIC: 0.12 µg/mL
[5]
  MIC: 0.25 µg/mL
B. pseudomallei 1710b
  MIC: 4 µg/mL
B. pseudomallei MSHR465a
  MIC: 4 µg/mL
[6]
  MIC: 2 µg/mL
[7]
  MIC: 2 µg/mL
[8]
  MIC: 2 µg/mL
Escherichia coli 120955 [9]
  MIC: 4 µg/mL
[10]
  MIC: 4 µg/mL
[11]
  MIC: 4 µg/mL
[12]
  MIC: 2 µg/mL
[13]
  MIC: 0.5 µg/mL
[14]
  MIC: 0.25 µg/mL
[15]
  MIC: 16 µg/mL
[16]
  MBC: >32 * μg/mL
[17]
  MBC: 8 µg/mL
[18]; enriched persister population
  further reduction of ciprofloxacin-generated persister population: 1–2 log10 CFU/mL
[18]; in PBS, 3 h, MS-40S/MS-40 2× and 4× MIC, ciprofloxacin 5× MIC
  killing of ciprofloxacin-generated persister cells: killed to a concentration below/close to the limit of detection
B. cenocepacia K56-2 [19]
  in vivo antibiotic activity: did not observe in vivo antibiotic activity
B. cenocepacia K56-2 [20]
  in vivo antibiotic activity: did not observe in vivo antibiotic activity
B. cenocepacia K56-2 [21]
  MIC in the presence of 50% human serum: 128 µg/mL
C. elegans DH26; 4 μg/mL
  Percent survival of C. elegans: 100%
C. elegans DH26; 8 μg/mL
  Percent survival of C. elegans: 100%
C. elegans DH26; 16 μg/mL
  Percent survival of C. elegans: 100%
C. elegans DH26; 32 μg/mL
  Percent survival of C. elegans: 100%
C. elegans DH26; 64 μg/mL
  Percent survival of C. elegans: 100%
C. elegans DH26; 128 μg/mL
  Percent survival of C. elegans: 97.6%
C. elegans DH26; 256 μg/mL
  Percent survival of C. elegans: 85.7%
C. elegans DH26; highest concentration with 100 percent survival divided by the compound's MIC
  Survival100/MIC Ratio: 8
[22]; 1.0 mg/kg, 24 h
  Galleria Survival: 96.7%
[22]; 1.0 mg/kg, 48 h
  Galleria Survival: 86.7%
[22]; 1.0 mg/kg, 72 h
  Galleria Survival: 86.7%
[22]; 2.0 mg/kg, 24 h
  Galleria Survival: 83.3%
[22]; 2.0 mg/kg, 48 h
  Galleria Survival: 83.3%
[22]; 2.0 mg/kg, 72 h
  Galleria Survival: 83.3%
[22]; 5.0 mg/kg, 24 h
  Galleria Survival: 93.3%
[22]; 5.0 mg/kg, 48 h
  Galleria Survival: 86.7%
[22]; 5.0 mg/kg, 72 h
  Galleria Survival: 86.7%
[22]; 10 mg/kg
  percent survival of Galleria larvae: ≥ 80%
[22]; 10.0 mg/kg, 24 h
  Galleria Survival: 90.0%
[22]; 10.0 mg/kg, 48 h
  Galleria Survival: 76.7%
[22]; 10.0 mg/kg, 72 h
  Galleria Survival: 76.7%
B. cenocepacia K56-2 [23]; 5× MIC
  persister frequency (percent survival): very low persister frequency
B. cenocepacia K56-2 [23]; 10× MIC
  persister frequency (percent survival): no persisters
[24]
  MBC: 8 µg/mL
Escherichia coli 120955 [25]
  MBC: 64 µg/mL
[26]
  MBC: 4 µg/mL
[27]
  MBC: 8 µg/mL
[28]
  MBC: 8 µg/mL
[29]
  MBC: 2 µg/mL
[30]
  MBC: 1 µg/mL
[31]
  MBC: 32 µg/mL
[32]; 4× MIC, exponential phase
  reduction of the culture in time kill: approximately three
[32]; time kill, 1×, 2×, 4× MIC (DOX 4× MIC), 6 h
  killing of stationary (non-replicating) phase cells: bactericidal
[32]; time kill, 1×, 2×, 4× MIC, 6 h
  killing of exponential (replicating) phase cells: bactericidal

Source: article PMC8697972, “New Auranofin Analogs with Antibacterial Properties against Burkholderia Clinical Isolates” (Antibiotics, 2021)
